Measurements as given in patent US4918105A, “Novel compounds with collagenase-inhibiting activity, a process for their preparation and pharmaceutical compositions in which these compounds are present” (SA Laboratoire Roger Bellon, priority 1987, dated 1990).
Where two headings read alike, the source gives them in different places.

Legend:
[1] = molecular target: ACE (Homo sapiens, UniProt P12821); assay: Specificity of the inhibition: ACE; assay type: biochemical; conditions: for inhibition at 10 µM: 10^-5 M; for inhibition at 0.1 µM: 10^-7 M
Sequence of ACE (P12821 30-1306, species assumed): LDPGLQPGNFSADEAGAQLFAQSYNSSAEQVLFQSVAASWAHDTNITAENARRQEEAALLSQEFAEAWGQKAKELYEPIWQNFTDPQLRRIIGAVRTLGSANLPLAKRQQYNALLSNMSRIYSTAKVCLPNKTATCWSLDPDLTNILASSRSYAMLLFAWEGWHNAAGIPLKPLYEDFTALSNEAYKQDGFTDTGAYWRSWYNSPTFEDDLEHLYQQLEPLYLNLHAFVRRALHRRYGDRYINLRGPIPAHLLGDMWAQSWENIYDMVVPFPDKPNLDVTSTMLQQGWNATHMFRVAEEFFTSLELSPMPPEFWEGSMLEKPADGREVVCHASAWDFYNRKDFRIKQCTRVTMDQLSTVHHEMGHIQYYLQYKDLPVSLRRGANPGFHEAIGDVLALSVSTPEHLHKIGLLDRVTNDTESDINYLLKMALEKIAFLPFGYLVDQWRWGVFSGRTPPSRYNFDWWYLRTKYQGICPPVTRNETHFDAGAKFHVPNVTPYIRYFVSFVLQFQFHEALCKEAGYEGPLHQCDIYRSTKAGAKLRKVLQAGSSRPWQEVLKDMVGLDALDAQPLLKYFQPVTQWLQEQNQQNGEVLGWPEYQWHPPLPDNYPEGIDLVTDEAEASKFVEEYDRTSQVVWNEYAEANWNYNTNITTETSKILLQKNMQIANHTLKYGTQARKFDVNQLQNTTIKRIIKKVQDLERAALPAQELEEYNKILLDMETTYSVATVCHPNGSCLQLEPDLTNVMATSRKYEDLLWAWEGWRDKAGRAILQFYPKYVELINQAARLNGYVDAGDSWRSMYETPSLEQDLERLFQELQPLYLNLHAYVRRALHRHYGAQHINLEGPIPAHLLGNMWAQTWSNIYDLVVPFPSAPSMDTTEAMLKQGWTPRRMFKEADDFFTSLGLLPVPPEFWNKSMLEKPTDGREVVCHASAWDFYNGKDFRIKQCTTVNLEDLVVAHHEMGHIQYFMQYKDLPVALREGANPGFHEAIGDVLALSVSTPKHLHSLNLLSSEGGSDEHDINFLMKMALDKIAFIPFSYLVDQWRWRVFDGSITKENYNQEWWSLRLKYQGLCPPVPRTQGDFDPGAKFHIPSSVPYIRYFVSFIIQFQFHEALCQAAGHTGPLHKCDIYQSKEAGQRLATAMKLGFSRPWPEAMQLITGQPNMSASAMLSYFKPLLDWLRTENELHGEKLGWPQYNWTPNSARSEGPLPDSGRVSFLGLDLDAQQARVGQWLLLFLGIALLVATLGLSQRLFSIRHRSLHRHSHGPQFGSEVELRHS
Description: (§1) The specificity of the inhibition was measured by studying several other enzymes, including metalloporteases other than collagenase.

[2] = molecular target: Thrombin (Homo sapiens, UniProt P00734); assay: Specificity of the inhibition: thrombin; assay type: biochemical; conditions: for inhibition at 10 µM: 10^-5 M; for inhibition at 0.1 µM: 10^-7 M
Description: as §1

[3] = molecular target: α-Chymotrypsin (Bos taurus, UniProt P00766); assay: Specificity of the inhibition: α-chymotrypsin; assay type: biochemical; conditions: for inhibition at 10 µM: 10^-5 M; for inhibition at 0.1 µM: 10^-7 M
Description: as §1

[4] = molecular target: T1, Carboxypeptidase B (Sus scrofa, UniProt P09955); assay: Specificity of the inhibition: carboxypeptidase B; assay type: biochemical; conditions: for inhibition at 10 µM: 10^-5 M; for inhibition at 0.1 µM: 10^-7 M
T1 sequence (P09955 111-416): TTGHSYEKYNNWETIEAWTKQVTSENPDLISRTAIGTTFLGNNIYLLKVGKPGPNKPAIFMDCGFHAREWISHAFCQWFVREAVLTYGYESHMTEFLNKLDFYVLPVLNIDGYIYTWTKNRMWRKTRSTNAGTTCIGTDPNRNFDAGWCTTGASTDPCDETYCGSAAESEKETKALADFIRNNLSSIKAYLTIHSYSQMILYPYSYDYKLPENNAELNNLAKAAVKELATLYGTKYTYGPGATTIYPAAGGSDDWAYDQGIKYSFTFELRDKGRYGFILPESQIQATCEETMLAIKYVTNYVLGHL
Description: as §1

[5] = molecular target: Plasmin (Homo sapiens, UniProt P00747); assay: Specificity of the inhibition: plasmin; assay type: biochemical; conditions: for inhibition at 10 µM: 10^-5 M; for inhibition at 0.1 µM: 10^-7 M
Sequence of Plasmin (P00747 581-810 limits assumed, species assumed): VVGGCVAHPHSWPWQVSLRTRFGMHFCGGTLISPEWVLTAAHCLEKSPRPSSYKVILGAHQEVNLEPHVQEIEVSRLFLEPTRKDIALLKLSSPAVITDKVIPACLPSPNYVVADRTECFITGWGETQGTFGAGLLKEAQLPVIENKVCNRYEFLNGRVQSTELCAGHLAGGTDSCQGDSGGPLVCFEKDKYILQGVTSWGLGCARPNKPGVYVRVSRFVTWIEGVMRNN
Sequence of Plasmin (P00747 97-580 partner limits assumed, species assumed): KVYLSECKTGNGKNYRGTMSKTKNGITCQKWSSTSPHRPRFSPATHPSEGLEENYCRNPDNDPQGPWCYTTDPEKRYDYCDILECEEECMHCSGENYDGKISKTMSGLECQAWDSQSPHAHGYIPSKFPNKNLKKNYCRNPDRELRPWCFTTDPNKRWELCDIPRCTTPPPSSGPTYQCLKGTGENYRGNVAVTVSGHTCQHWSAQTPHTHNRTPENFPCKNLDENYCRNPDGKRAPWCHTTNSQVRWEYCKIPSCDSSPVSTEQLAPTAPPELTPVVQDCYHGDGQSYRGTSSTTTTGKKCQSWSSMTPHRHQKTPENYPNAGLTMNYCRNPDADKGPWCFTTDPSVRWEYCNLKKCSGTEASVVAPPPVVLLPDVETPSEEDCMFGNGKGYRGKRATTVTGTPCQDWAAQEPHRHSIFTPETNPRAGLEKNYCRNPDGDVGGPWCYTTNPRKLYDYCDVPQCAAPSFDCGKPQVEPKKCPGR
Description: as §1

[6] = molecular target: T2, Human collagenase (Homo sapiens, UniProt P03956); assay: Specificity of the inhibition: human collagenase; assay type: biochemical; conditions: for inhibition at 10 µM: 10^-5 M; for inhibition at 0.1 µM: 10^-7 M
T2 construct: isolated from synovial cells in culture; endogenous in cells; host or cells: human synovial cells in culture
T2 sequence (P03956 100-469): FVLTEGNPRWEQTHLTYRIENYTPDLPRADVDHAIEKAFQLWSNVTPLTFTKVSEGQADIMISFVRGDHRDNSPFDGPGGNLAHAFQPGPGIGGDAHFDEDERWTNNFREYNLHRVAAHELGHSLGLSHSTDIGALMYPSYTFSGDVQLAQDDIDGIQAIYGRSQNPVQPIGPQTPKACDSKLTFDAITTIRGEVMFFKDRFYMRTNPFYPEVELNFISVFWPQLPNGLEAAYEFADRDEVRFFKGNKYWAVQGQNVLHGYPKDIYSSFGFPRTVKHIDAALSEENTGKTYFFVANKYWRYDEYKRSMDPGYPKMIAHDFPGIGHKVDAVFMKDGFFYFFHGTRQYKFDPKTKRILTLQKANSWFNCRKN
Description: (§2) The anticollagenase activity of the compounds according to the present invention was determined on synovial collagenase of porcine or human origin, isolated from synovial cells in culture according to the procedure described by Cawston and Barrett (Cawston and Barrett (1979), Anal. Biochem. 99, 340-345). The collagenase was incubated at 37° C. with radiolabeled collagen and its activity was determined by the release of the soluble peptides produced by enzymatic degradation of the collagen. The inhibitory concentration IC50 for each compound was determined by measuring the activity of the enzyme in the presence of the inhibitor at a concentration of between 10^-5 and 10^-8 M.
as §1

[7] = molecular target: T3, Papain (Carica papaya, UniProt P00784); assay: Specificity of the inhibition: papain; assay type: biochemical; conditions: for inhibition at 10 µM: 10^-5 M; for inhibition at 0.1 µM: 10^-7 M
T3 sequence (P00784 134-345): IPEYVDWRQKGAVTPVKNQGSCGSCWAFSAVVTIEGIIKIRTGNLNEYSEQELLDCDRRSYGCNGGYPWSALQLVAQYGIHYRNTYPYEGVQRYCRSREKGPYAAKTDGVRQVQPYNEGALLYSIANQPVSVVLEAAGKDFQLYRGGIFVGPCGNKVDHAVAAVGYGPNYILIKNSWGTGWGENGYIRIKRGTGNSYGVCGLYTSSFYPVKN
Description: as §1

[8] = molecular target: T4, Carboxypeptidase A (Bos taurus, UniProt P00730); assay: Specificity of the inhibition: carboxypeptidase A; assay type: biochemical; conditions: for inhibition at 10 µM: 10^-5 M; for inhibition at 0.1 µM: 10^-7 M
T4 sequence (P00730 111-419): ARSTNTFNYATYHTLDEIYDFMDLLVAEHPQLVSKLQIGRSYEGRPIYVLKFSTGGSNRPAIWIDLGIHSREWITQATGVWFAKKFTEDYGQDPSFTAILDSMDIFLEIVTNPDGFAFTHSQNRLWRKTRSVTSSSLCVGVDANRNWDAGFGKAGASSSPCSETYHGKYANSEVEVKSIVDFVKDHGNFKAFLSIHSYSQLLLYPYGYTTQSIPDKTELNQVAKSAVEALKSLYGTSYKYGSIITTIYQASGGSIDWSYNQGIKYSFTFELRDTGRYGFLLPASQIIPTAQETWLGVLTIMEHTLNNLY
Description: as §1

[9] = molecular target: T5, Trypsin (Bos taurus, UniProt P00760); assay: Specificity of the inhibition: trypsin; assay type: biochemical; conditions: for inhibition at 10 µM: 10^-5 M; for inhibition at 0.1 µM: 10^-7 M
T5 sequence (P00760 24-246): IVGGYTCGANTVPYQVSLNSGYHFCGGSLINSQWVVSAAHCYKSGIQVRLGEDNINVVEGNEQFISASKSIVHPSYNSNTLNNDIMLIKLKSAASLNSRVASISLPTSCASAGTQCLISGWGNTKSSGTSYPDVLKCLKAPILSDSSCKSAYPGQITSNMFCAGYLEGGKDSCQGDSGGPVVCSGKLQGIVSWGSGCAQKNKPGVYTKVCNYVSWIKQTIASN
Description: as §1

[10] = molecular target: T6, Porcine collagenase (Sus scrofa, UniProt P21692); assay: Specificity of the inhibition: porcine collagenase; assay type: biochemical; conditions: for inhibition at 10 µM: 10^-5 M; for inhibition at 0.1 µM: 10^-7 M
T6 construct: isolated from synovial cells in culture; endogenous in cells; host or cells: porcine synovial cells in culture
T6 sequence (P21692 100-469): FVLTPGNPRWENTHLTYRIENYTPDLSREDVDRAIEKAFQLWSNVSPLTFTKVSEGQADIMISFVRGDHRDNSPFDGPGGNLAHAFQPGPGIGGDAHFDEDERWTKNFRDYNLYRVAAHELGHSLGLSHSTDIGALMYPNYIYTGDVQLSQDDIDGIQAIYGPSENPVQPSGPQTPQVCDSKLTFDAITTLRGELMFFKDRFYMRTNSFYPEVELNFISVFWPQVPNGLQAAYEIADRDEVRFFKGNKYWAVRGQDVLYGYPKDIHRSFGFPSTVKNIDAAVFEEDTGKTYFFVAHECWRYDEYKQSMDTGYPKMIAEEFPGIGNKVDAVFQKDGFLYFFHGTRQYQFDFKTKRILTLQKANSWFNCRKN
Description: as §2, §1

[11] = molecular target: Pepsin (Sus scrofa, UniProt P00791); assay: Specificity of the inhibition: pepsin; assay type: biochemical; conditions: for inhibition at 10 µM: 10^-5 M; for inhibition at 0.1 µM: 10^-7 M
Sequence of Pepsin (P00791 60-385): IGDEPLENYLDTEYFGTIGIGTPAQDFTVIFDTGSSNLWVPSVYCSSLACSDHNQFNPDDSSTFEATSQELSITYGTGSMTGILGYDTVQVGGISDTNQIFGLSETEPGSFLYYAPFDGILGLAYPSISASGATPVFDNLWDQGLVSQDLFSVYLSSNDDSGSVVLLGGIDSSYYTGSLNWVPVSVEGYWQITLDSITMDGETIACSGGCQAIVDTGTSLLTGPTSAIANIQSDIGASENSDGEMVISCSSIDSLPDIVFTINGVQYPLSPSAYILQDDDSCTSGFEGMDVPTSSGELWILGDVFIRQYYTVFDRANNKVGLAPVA
Description: as §1

[12] = molecular target: synovial collagenase of porcine or human origin; assay: Anticollagenase activity: release of soluble peptides from radiolabeled collagen; assay type: biochemical
Description: as §2
Representative results of these tests are given for the compounds according to the invention in Table I.

[13] = test system: bone resorption; assay: Bone resorption model in isolated organ (Ca++ release); assay type: cell-based
From the text: Anticollagenase activity has also been determined in a bone resorption model described by Delaisse et al. (Delaisse et al. (1985), Biochem. Biophys. Res. commun., 133, 483-490). This model, which utilizes the degradation of cartilage and bone in an isolated organ, is more physiological than direct determination of the enzyme activity in vitro. The results of the tests are collated in Table II; the same inhibitors are found to be active in both systems.

[14] = Table I, % inhibition 50, read-out: Concentration for 50 % inhibition (IC50), anticollagenase activity

Row | SMILES | inhibition at 10 µM [1] [%] | inhibition at 0.1 µM [1] [%] | inhibition at 10 µM [2] [%] | inhibition at 0.1 µM [2] [%] | inhibition at 10 µM [3] [%] | inhibition at 0.1 µM [3] [%] | inhibition at 10 µM [4] [%] | inhibition at 0.1 µM [4] [%] | inhibition at 10 µM [5] [%] | inhibition at 0.1 µM [5] [%] | inhibition at 10 µM [6] [%] | inhibition at 0.1 µM [6] [%] | inhibition at 10 µM [7] [%] | inhibition at 0.1 µM [7] [%] | inhibition at 10 µM [8] [%] | inhibition at 0.1 µM [8] [%] | inhibition at 10 µM [9] [%] | inhibition at 0.1 µM [9] [%] | inhibition at 10 µM [10] [%] | IC50 [12, 14] [nM] | further results
1 | CC(C)CC(CC(=O)NO)C(=O)N[C@H](C(=O)NCc1ccccc1)C(C)C (single isomer, unassigned) [Example 2, N-Benzyl-Nα-(N-hydroxy-2-isobutylsuccinamoyl)-L-valinamide] | 40 | 4 | 5 | 0 | 0 | 0 | 0 | 0 | 0 | 0 | 100 | 30 | 5 | 0 | 0 | 0 | 0 | 0 | 100 | – | inhibition at 0.1 µM [10]: 52%; inhibition at 10 µM [11]: 19%; inhibition at 0.1 µM [11]: 0%
2 | CC(C)CC(CC(=O)NO)C(=O)N[C@H](C(=O)NCc1ccccc1)C(C)C (single isomer, unassigned) [Example 2, isomer A, N-Benzyl-Nα-(N-hydroxy-2-isobutylsuccinamoyl)-L-valinamide] | – | – | – | – | – | – | – | – | – | – | – | – | – | – | – | – | – | – | – | – | IC50 ([12]; Table II, read-out: collagenase inhibition IC50): 16000 nM; % protection against bone resorption (Ca++ release) ([13]; 8 μM): 0%; % protection against bone resorption (Ca++ release) ([13]; 25 μM): 0%
3 | CC(C)CC(CC(=O)NO)C(=O)N[C@H](C(=O)NCc1ccccc1)C(C)C (single isomer, unassigned) [Example 3, N-Benzyl-Nα-(N-hydroxy-2-isobutylsuccinamoyl)-L-valinamide, B form] | – | – | – | – | – | – | – | – | – | – | – | – | – | – | – | – | – | – | – | 35 | IC50 ([12]; Table II, listed as Example 2, isomer B, read-out: collagenase inhibition IC50): 35 nM; % protection against bone resorption (Ca++ release) ([13]; 8 μM, listed as Example 2, isomer B): 90-100%; % protection against bone resorption (Ca++ release) ([13]; 25 μM, listed as Example 2, isomer B): 90-100%
4 | CC(C)CC(CC(=O)NO)C(=O)N[C@H](C(=O)NCc1ccc(C(F)(F)F)cc1)C(C)C (single isomer, unassigned) [Example 4, N-(4-Trifluoromethylbenzyl)-Nα-(N-hydroxy-2-isobutylsuccinamoyl)-L-valinamide, B form] | – | – | – | – | – | – | – | – | – | – | – | – | – | – | – | – | – | – | – | 80 | –
5 | CC(C)CC(CC(=O)NO)C(=O)N[C@H](C(=O)NCCc1ccccc1)C(C)C (single isomer, unassigned) [Example 5, N-Phenethyl-Nα-(N-hydroxy-2-isobutylsuccinamoyl)-L-valinamide, B form] | – | – | – | – | – | – | – | – | – | – | – | – | – | – | – | – | – | – | – | 75 | –
6 | CC(C)CC(CC(=O)NO)C(=O)N[C@H](C(N)=O)C(C)C (stereo partly drawn) [Example 1, Nα-(N-hydroxy-2-isobutylsuccinamoyl)-L-valinamide] | 4 | 0 | 0 | 0 | 0 | 0 | 0 | 0 | 0 | 0 | 100 | 12 | 5 | 0 | 0 | 0 | 0 | 0 | 100 | 320 | inhibition at 0.1 µM [10]: 23%; inhibition at 10 µM [11]: 19%; inhibition at 0.1 µM [11]: 0%
